Source: the supplement of paper PMC10307832

Legend:
Experiment in all cases: relative viability (nuclei count vs DMSO), 5 days (fraction); higher = more cells survive
[1] = compound: COc1ccc(-c2ccc3c(N4CCOC[C@@H]4C)nc(N4CCOC[C@@H]4C)nc3n2)cc1CO [AZD8055] + CC(C)C[C@H](NC(=O)[C@H](Cc1ccccc1)NC(=O)c1cnccn1)B(O)O [Bortezomib] (partner 0.002 µM)
How it was run: (§1)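 Lung cancer cell lines in 1536-well plates got either a single drug or a fixed anchor-drug dose together with five library-drug doses (not always all listed) in √10 steps, by pin tool, on the day after seeding. Nuclei were counted after 5 days, and relative viability is the treated-to-vehicle ratio of nuclei counts. Values are medians of duplicate plates.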

[2] = compound: COc1ccc(-c2ccc3c(N4CCOC[C@@H]4C)nc(N4CCOC[C@@H]4C)nc3n2)cc1CO [AZD8055] + CS(=O)(=O)CCNCc1ccc(-c2ccc3ncnc(Nc4ccc(OCc5cccc(F)c5)c(Cl)c4)c3c2)o1 [Lapatinib] (partner 2 µM)
How it was run: as §1

[3] = compound: COc1ccc(-c2ccc3c(N4CCOC[C@@H]4C)nc(N4CCOC[C@@H]4C)nc3n2)cc1CO [AZD8055] + NC(=O)Nc1cc(-c2cccc(F)c2)sc1C(=O)N[C@H]1CCCNC1 [AZD7762] (partner 0.2 µM)
How it was run: as §1

[4] = compound: COc1ccc(-c2ccc3c(N4CCOC[C@@H]4C)nc(N4CCOC[C@@H]4C)nc3n2)cc1CO [AZD8055] + Nc1ncn([C@H]2C[C@H](O)[C@@H](CO)O2)c(=O)n1 [Decitabine] (partner 2 µM)
How it was run: as §1

Row | Cell Line | relative viability ([1]; first compound 0.01 µM) | relative viability ([1]; first compound 0.03162 µM) | relative viability ([1]; first compound 0.1 µM) | relative viability ([1]; first compound 0.3162 µM) | relative viability ([1]; first compound 1 µM) | relative viability ([2]; first compound 0.01 µM) | relative viability ([2]; first compound 0.03162 µM) | relative viability ([2]; first compound 0.1 µM) | relative viability ([2]; first compound 0.3162 µM) | relative viability ([2]; first compound 1 µM) | relative viability ([3]; first compound 0.01 µM) | relative viability ([3]; first compound 0.03162 µM) | relative viability ([3]; first compound 0.1 µM) | relative viability ([3]; first compound 0.3162 µM) | relative viability ([3]; first compound 1 µM) | relative viability ([4]; first compound 0.01 µM) | relative viability ([4]; first compound 0.03162 µM) | relative viability ([4]; first compound 0.1 µM) | relative viability ([4]; first compound 0.3162 µM) | relative viability ([4]; first compound 1 µM)
1 | HCC-827 | 1.2 | 1.04 | 1.11 | 0.935 | 1.08 | 0.212 | 0.201 | 0.193 | 0.141 | 0.21 | 0.203 | 0.319 | 0.189 | 0.212 | 0.165 | 0.329 | 0.279 | 0.278 | 0.262 | 0.23
2 | HOP-62 | 0.669 | 0.747 | 0.969 | 0.304 | 0.469 | 1.14 | 0.908 | 0.962 | 0.369 | 0.316 | 0.677 | 0.418 | 0.512 | 0.167 | 0.111 | 0.193 | 0.213 | 0.239 | 0.215 | 0.194
3 | LC-2-ad | 1.08 | 1.01 | 1.08 | 0.777 | 0.537 | 1.1 | 0.987 | 0.924 | 0.683 | 0.456 | 0.909 | 0.873 | 0.816 | 0.791 | 0.645 | 0.911 | 0.729 | 0.788 | 0.835 | 0.67
4 | LCLC-97TM1 | 0.524 | 0.417 | 0.345 | 0.103 | 0.162 | 0.758 | 0.815 | 0.639 | 0.157 | 0.181 | 0.23 | 0.176 | 0.173 | 0.145 | 0.11 | 0.239 | 0.184 | 0.17 | 0.133 | 0.147
